Drawing on patent US5332734A, “Oxazinone derivative” (Japan Tobacco, Incorporated, priority 1991, dated 1994), this text covers inhibition and activity for 1 compound.

For the test, the system named is human neutrophils. Nature of the test: Activity for suppressing chemotaxis of human neutrophils (fMLP). It counts as cell-based. The note with it: Neutrophil, 1 h, one hour. The procedure:
Test 2: Activity of the Invented Compound for Suppressing Chemotaxis of Human Neutrophils
A neutrophil fraction (60% percoal fraction having neutrophil purity of at least 90%) was obtained from a human peripheral blood by a percoal density gradient centrifugal separation (2300 rpm, 20 minutes).
1300 μl of a culture medium containing 10^-7 M of fMLP (formylmethionyloycyl-phenylalanine), which is a neutrophil chemotaxis factor, was added in advance to each well of a chemotaxis chamber (KURABO). An inter cell having pores 5 μm in diameter and containing 8×10^5 neutrophils and the compound of the present invention adjusted at a desired concentration was disposed in the chemotaxis chamber. After culturing for one hour at 37° C. within a culturing device containing 5% of carbon dioxide gas, the number of cells migrated from the upper side of inter cell membrane into the lower side of the membrane in the chamber was counted by the method described in the following. Specifically, the lower side surface of the inter cell membrane was washed 4 times with PBS. After fixing the washed surface with methanol, the cells were dyed with hematoxylin-eosine solution. Then, the membrane was removed from the inter cell and put on a sliding glass for air-drying, followed by sealing with Canada balsam. Under this condition, five areas selected at random of the membrane were microscopically observed so as to count the number of cells. An average of the number of cells within the five areas was calculated so as to determine the number of migrated cells.
The function of the invented compound for suppressing chemotaxis was determined by the formula given below, in which the value obtained by subtracting the number of migrating cells in the reference experiment in which fMLP was not added from the number of migrating cells in the experiment in which the compound of the present invention was not added was set at 100:
= 100 - (C - D)/(E - D) × 100
A: Chemotaxis in the case of containing the compound of the present invention;
B: Chemotaxis in the case of not containing the compound of the present invention;
C: The number of migrating cells in the case of adding the compound of the present invention, fMLP;
D: The number of migrating cells in the case of not adding fMLP; and
E: The number of migrating cells in the case of adding only fMLP.

Take `Cc1cccc2nc([C@@H](NC(=O)OCC3c4ccccc4-c4ccccc43)C(C)C)oc(=O)c12` [Compound 1, 2-{1(S)-[(9-fluorenylmethoxycarbonyl)amino]-2-methylpropyl}-5-methyl-4H-3,1-benzoxazin-4-one]: at 50 µM the inhibition (concentration 50 (μm), fMLP 10^-7 M) was 89%. Moreover, where the note is “concentration 50 (μm), without compound = 100, fMLP 10^-7 M”, the activity at 50 µM was found to be 11%. Moreover, 100 µM produced 99% inhibition (concentration 100 (μm), fMLP 10^-7 M). For the setting “concentration 100 (μm), without compound = 100, fMLP 10^-7 M”, this compound displayed an activity at 100 µM of 1%.
